From patent publication US20260007133A1, “HERBICIDAL COMPOSITION COMPRISING AZINE COMPOUNDS” (BASF SE, priority 2022, published 2026)

How the values were obtained:
Assay type in all cases: in vivo
Abutilon theophrasti [1] = assay: Greenhouse post-emergence (POST) herbicidal test on ABUTH; details: for % activity: ABUTH POST
Description: (§1) The culture containers used were plastic pots containing loamy sand with approximately 3.0% of humus as substrate. The seeds of the test plants were sown separately for each species.
(§2) For the post-emergence treatment, the test plants were grown to a plant height of from 3 to 15 cm, depending on the plant habit, and only then treated with the active compounds which had been suspended or emulsified in water. To this end, the test plants were either sown directly, and grown in the same containers, or they were first grown separately as seedlings and transplanted into the test containers a few days prior to treatment.
(§3) Depending on the species, the plants were kept at 10-25° C. and 20-35° C., respectively.
(§4) The test period extended over 2 to 4 weeks. During this time, the plants were tended and their response to the individual treatments was evaluated.
(§5) Evaluation was carried out using a scale from 0 to 100. 100 means no emergence of the plants, or complete destruction of at least the above-ground parts, and 0 means no damage or normal course of growth. A good herbicidal activity is given at values of at least 70, and very good herbicidal activity is given at values of at least 85.
(§6) If not stated differently, the respective components A and B, and if appropriate, C were formulated as a 5% by weight strength emulsion concentrate and, with addition of the amount of solvent system, introduced into the spray liquor used for applying the active compound.
(§7) As indicated application was either post emergent (POST) at the respective growth stage (GS) of the weed (BBCH code), or pre-emergent (PRE). […]

Euphorbia heterophylla [2] = assay: Greenhouse post-emergence (POST) herbicidal test on EPHHL
Description: as §1, §2, §3, §4, §5, §6, §7

Geranium pusillum = assay: Greenhouse post-emergence (POST) herbicidal test on GERPU
Description: as §1, §2, §3, §4, §5, §6, §7

Amaranthus retroflexus = assay: Greenhouse post-emergence (POST) herbicidal test on AMARE
Description: as §1, §2, §3, §4, §5, §6, §7

Abutilon theophrasti [3] = assay: Greenhouse pre-emergence (PRE) herbicidal test on ABUTH; details: Abutilon theophrasti, pre-emergence
Description: as §1
(§8) The containers were irrigated gently to promote germination and growth and subsequently covered with transparent plastic hoods until the plants had rooted.
as §3, §4, §5, §7

Ambrosia artemisiifolia = assay: Greenhouse pre-emergence (PRE) herbicidal test on AMBEL; details: Ambrosia artemisiifolia, pre-emergence, 432 h, PRE, AMBEL, Propyzamide solo 250 gai/ha, 18 DAT; read-out: % activity
Description: as §1, §8, §3, §4, §5, §7

Echinochloa crus-galli = assay: Greenhouse post-emergence (POST) herbicidal test on ECHCG
Description: as §1, §2, §3, §4, §5, §6, §7

Euphorbia heterophylla [4] = assay: Greenhouse pre-emergence (PRE) herbicidal test on EPHHL; details: Euphorbia heterophylla, pre-emergence
Description: as §1, §8, §3, §4, §5, §7

Setaria viridis = assay: Greenhouse pre-emergence (PRE) herbicidal test on SETVI; details: Setaria viridis, pre-emergence, read-out: % activity
From the text: as §1
For the pre-emergence treatment, the active compounds, suspended or emulsified in water, were applied directly after sowing by means of finely distributing nozzles. The containers were irrigated gently to promote germination and growth and subsequently covered with transparent plastic hoods until the plants had rooted. This cover caused uniform germination of the test plants unless this was adversely affected by the active compounds.
as §3, §4, §5, §6, §7

Lolium multiflorum = assay: Greenhouse pre-emergence (PRE) herbicidal test on LOLMU; details: Lolium multiflorum, pre-emergence, read-out: % activity
Description: as §1, §8, §3, §4, §5, §7

For `C#CC(C)(C)NC(=O)c1cc(Cl)cc(Cl)c1` [Propyzamide, propyzamide], which pest or weed control at 1000 g/ha (Abutilon theophrasti [1]; Abutilon theophrasti, post-emergence, 432 h, POST, ABUTH, Propyzamide solo 1000 gai/ha, 18 DAT) is on record?
The pest or weed control at 1000 g/ha was 5%.

And the pest or weed control at 250 g/ha (Euphorbia heterophylla [2]; Euphorbia heterophylla, post-emergence, 432 h, POST, EPHHL, Propyzamide solo 250 gai/ha, 18 DAT, read-out: % activity)?
Its pest or weed control at 250 g/ha is 0%.

What about the pest or weed control at 1000 g/ha (Geranium pusillum; Geranium pusillum, post-emergence, 432 h, POST, GERPU, Propyzamide solo 1000 gai/ha, 18 DAT) of the same compound?
The pest or weed control at 1000 g/ha was 20%.

What about the pest or weed control at 250 g/ha (Amaranthus retroflexus; Amaranthus retroflexus, post-emergence, 432 h, POST, AMARE, Propyzamide solo 250 gai/ha, 18 DAT, read-out: % activity) of the same compound?
Its pest or weed control at 250 g/ha is 20%.

And the pest or weed control at 1000 g/ha (Amaranthus retroflexus; Amaranthus retroflexus, post-emergence, 432 h, POST, AMARE, Propyzamide solo 1000 gai/ha, 18 DAT)?
The pest or weed control at 1000 g/ha was 50%.

And the pest or weed control at 250 g/ha (Abutilon theophrasti [3]; 432 h, PRE, ABUTH, Propyzamide solo 250 gai/ha, 18 DAT)?
The pest or weed control at 250 g/ha was 0%.

And the pest or weed control at 1000 g/ha (Abutilon theophrasti [3]; 432 h, PRE, ABUTH, Propyzamide solo 1000 gai/ha, 18 DAT)?
Its pest or weed control at 1000 g/ha is 10%.

What about the pest or weed control at 250 g/ha (Ambrosia artemisiifolia) of the same compound?
Its pest or weed control at 250 g/ha is 0%.

And the pest or weed control at 250 g/ha (Echinochloa crus-galli; Echinochloa crus-galli, post-emergence, 432 h, POST, ECHCG, Propyzamide solo 250 gai/ha, 18 DAT, read-out: % activity)?
Its pest or weed control at 250 g/ha is 0%.

What about the pest or weed control at 1000 g/ha (Echinochloa crus-galli; Echinochloa crus-galli, post-emergence, 432 h, POST, ECHCG, Propyzamide solo 1000 gai/ha, 18 DAT) of the same compound?
The pest or weed control at 1000 g/ha was 30%.

And the pest or weed control at 250 g/ha (Euphorbia heterophylla [4]; 432 h, PRE, EPHHL, Propyzamide solo 250 gai/ha, 18 DAT, read-out: % activity)?
Its pest or weed control at 250 g/ha is 10%.

What about the pest or weed control at 1000 g/ha (Euphorbia heterophylla [4]; 432 h, PRE, EPHHL, Propyzamide solo 1000 gai/ha, 18 DAT) of the same compound?
Its pest or weed control at 1000 g/ha is 15%.

Which “% activity” value (Euphorbia heterophylla [2]; EPHHL POST, use rate 150 gai/ha) does the source give for `O=C(O)COc1ccc(Cl)cc1Cl` [2,4-D] here?
Its value is 65%.

And the “% activity” value (Geranium pusillum; GERPU POST, use rate 150 gai/ha)?
Its value is 70%.

And the “% activity” value (Echinochloa crus-galli; ECHCG POST, use rate 37.5 gai/ha)?
The value was 20%.

How did the inhibition at 3.8 g/ha (Abutilon theophrasti [3]; read-out: % activity) turn out when `C/C(=N\NC(=O)Nc1cc(F)cc(F)c1)c1ncccc1C(=O)O` [Diflufenzopyr, diflufenzopyr] was run?
The inhibition at 3.8 g/ha was 0%.

And the inhibition at 15 g/ha (Abutilon theophrasti [3]; read-out: % activity)?
The inhibition at 15 g/ha was 0%.

What about the inhibition at 3.8 g/ha (Euphorbia heterophylla [4]; read-out: % activity) of the same compound?
Its inhibition at 3.8 g/ha is 0%.

What about the inhibition at 15 g/ha (Setaria viridis) of the same compound?
Its inhibition at 15 g/ha is 50%.

And the inhibition at 3.8 g/ha (Lolium multiflorum)?
Its inhibition at 3.8 g/ha is 0%.

For `COC[C@H](C)N(C(=O)CCl)c1c(C)csc1C` [Dimethenamid-P, dimethenamid-P], which “% activity” value (Abutilon theophrasti [1]; use rate 50 gai/ha) is on record?
Its value is 0%.

What about the “% activity” value (Abutilon theophrasti [1]; use rate 200 gai/ha) of the same compound?
Its value is 25%.

What about the “% activity” value (Amaranthus retroflexus; AMARE POST, use rate 200 gai/ha) of the same compound?
Its value is 0%.
